Measured values published in patent US6908908B2, “Biologically active 4H-benzo [1,4] oxazin-3-ones” (Ortho-McNeil Pharmaceutical, Inc., priority 2000, dated 2005).

molecular target: T1, PPAR γ (Homo sapiens, UniProt P37231); assay: aP2 Assay for Agonist (induction of aP2 mRNA production); type: cell-based; conditions: Table 1; fold increase over vehicle in induction of aP2 mRNA production; for Agonist Intrinsic Activity: test concentration or dose not given here
T1 construct: Following the challenge of the preadipocytes, cells may be lysed with lysis buffer; endogenous in cells; host or cells: preadipocytes
T1 sequence (P37231 1-505): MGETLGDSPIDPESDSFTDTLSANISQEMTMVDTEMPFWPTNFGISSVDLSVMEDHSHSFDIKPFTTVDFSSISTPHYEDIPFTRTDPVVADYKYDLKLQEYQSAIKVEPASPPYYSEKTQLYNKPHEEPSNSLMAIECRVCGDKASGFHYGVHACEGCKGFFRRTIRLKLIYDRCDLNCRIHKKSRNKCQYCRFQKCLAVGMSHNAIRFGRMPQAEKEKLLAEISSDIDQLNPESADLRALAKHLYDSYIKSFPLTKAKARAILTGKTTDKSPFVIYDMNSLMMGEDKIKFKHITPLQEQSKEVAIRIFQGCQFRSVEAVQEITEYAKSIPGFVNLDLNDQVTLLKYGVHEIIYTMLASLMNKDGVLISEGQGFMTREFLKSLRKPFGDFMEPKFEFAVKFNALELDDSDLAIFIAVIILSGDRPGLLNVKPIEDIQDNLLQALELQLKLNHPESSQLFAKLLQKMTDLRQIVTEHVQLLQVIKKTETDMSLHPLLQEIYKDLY

Point of comparison: `O=C([O-])c1ccccc1OCCC1Oc2ccccc2N(Cc2cccc(C(F)(F)F)c2)C1=O.[Na+]` (stereo not shown) [Compound 26, Benzoic acid, 2-[2-[3,4-dihydro-3-oxo-4-[[3-(trifluoromethyl)phenyl]methyl]-2H-1,4-benzoxazin-2-yl]ethoxy]-, monosodium salt], “Agonist Intrinsic Activity” value 3.1. Against it:
- CC(F)(F)CCCCCN1C(=O)C(CCOc2ccccc2CC(=O)O)Oc2ccccc21 (stereo not shown) [Compound 106] — higher, 40.8
- COC(=O)c1ccccc1OCCC1Oc2ccccc2N(Cc2ccc(Cl)cc2)C1=O (stereo not shown) [Compound 5] — lower, 0.7
- CCCCCCCCCN1C(=O)C(CCOc2ccccc2CC(=O)OC)Oc2ccccc21 (stereo not shown) [Compound 54] — lower, 0.9
- O=C1C(CCOc2ccccc2C(F)(F)F)Oc2ccccc2N1Cc1ccc(Cl)c(Cl)c1 (stereo not shown) [Compound 8] — higher, 3.3
- CC(C)(CN)CCCCN1C(=O)C(CCOc2ccccc2CC(=O)O)Oc2ccccc21 (stereo not shown) [Compound 96] — higher, 27.5
- CCCCCCN1C(=O)C(CCOc2ccccc2CP(=O)(O)O)Oc2ccccc21 (stereo not shown) [Compound 15, Phosphonic acid, [[2-[2-(4-hexyl-3,4-dihydro-3-oxo-2H-1,4-benzoxazin-2-yl)ethoxy]phenyl]methyl]-] — higher, 7.2
- O=C([O-])CCc1ccccc1OCCC1Oc2ccccc2N(Cc2cccc(C(F)(F)F)c2)C1=O.[Na+] (stereo not shown) [Compound 30] — higher, 5.6
- CC(=O)CCCCN1C(=O)C(CCOc2ccccc2CC(=O)O)Oc2ccccc21 (stereo not shown) [Compound 78, Benzeneacetic acid, 2-[2-[3,4-dihydro-3-oxo-4-(5-oxohexyl)-2H-1,4-benzoxazin-2-yl]ethoxy]-] — higher, 11.1
- CC(C)(O)CCCCN1C(=O)C(CCOc2ccccc2CC(=O)O)Oc2ccccc21 (stereo not shown) [Compound 84] — higher, 3.5
- COC(=O)c1ccccc1OCCC1Oc2ccccc2N(Cc2cccc(C(F)(F)F)c2)C1=O (stereo not shown) [Compound 9, Benzoic acid, 2-[2-[3,4-dihydro-3-oxo-4-[[3-(trifluoromethyl)phenyl]methyl]-2H-1,4-benzoxazin-2-yl]ethoxy]-, methyl ester] — lower, 0.9
- CCCCCCCCCCN1C(=O)C(CCOc2ccccc2CC(=O)OC)Oc2ccccc21 (stereo not shown) [Compound 56] — lower, 1.0
- COC(=O)c1ccccc1OCCC1Oc2ccccc2N(Cc2ccc(C)cc2)C1=O (stereo not shown) [Compound 1] — lower, 0.9
- O=C([O-])Cc1cccc(OCCC2Oc3ccccc3N(Cc3cccc(C(F)(F)F)c3)C2=O)c1.[Na+] (stereo not shown) [Compound 34] — higher, 10.4
- CCCCCCCCN1C(=O)C(CCOc2ccccc2CC(=O)O)Oc2ccccc21 (stereo not shown) [Compound 53] — higher, 26.4
- CS(=O)(=O)NCCCCCCN1C(=O)C(CCOc2ccccc2CC(=O)O)Oc2ccccc21 (stereo not shown) [Compound 126, Benzeneacetic acid, 2-[2-[3,4-dihydro-3-oxo-4-(6-methanesulfonamidohexyl)-2H-1,4-benzoxazin-2-yl]ethoxy]-] — higher, 12.96
- O=C(O)Cc1ccccc1OCCC1Oc2ccccc2N(CCCCCO)C1=O (stereo not shown) [Compound 64] — higher, 3.6
- CCCCCCCN1C(=O)C(CCOc2ccccc2CC(=O)O)Oc2ccccc21 (stereo not shown) [Compound 51] — higher, 28.6
- CCOCCCN1C(=O)C(CCOc2ccccc2C(F)(F)F)Oc2ccccc21 (stereo not shown) [Compound 19] — lower, 1.4
- CC(=O)NCCCCCCN1C(=O)C(CCOc2ccccc2CC(=O)O)Oc2ccccc21 (stereo not shown) [Compound 125] — higher, 10.78
- CC(C)CCCCN1C(=O)C(CCOc2ccccc2CC(=O)O)Oc2ccccc21 (stereo not shown) [Compound 72] — higher, 32
- O=C(O)Cc1ccccc1OCCC1Oc2ccccc2N(c2ccc(Cl)c(Cl)c2)C1=O (stereo not shown) [Compound 119] — higher, 22.8
- CNC(=O)CCCN1C(=O)C(CCOc2ccccc2CC(=O)O)Oc2ccccc21 (stereo not shown) [Compound 124] — higher, 4.00
- O=C([O-])CCc1cccc(OCCC2Oc3ccccc3N(Cc3cccc(C(F)(F)F)c3)C2=O)c1.[Na+] (stereo not shown) [Compound 36] — higher, 11.1
- NC(=O)CCCCN1C(=O)C(CCOc2ccccc2CC(=O)O)Oc2ccccc21 (stereo not shown) [Compound 62] — lower, 1.5
- O=C(O)Cc1ccccc1OCCC1Oc2ccccc2N(CCCCCCF)C1=O (single isomer, unassigned) [Compound 92] — higher, 44.8
- CC(F)(F)CCCCN1C(=O)C(CCOc2ccccc2CC(=O)O)Oc2ccccc21 (stereo not shown) [Compound 87] — higher, 37.9
- COC(=O)Cc1ccccc1OCCC1Oc2ccccc2N(Cc2cccc(C(F)(F)F)c2)C1=O (stereo not shown) [Compound 27] — lower, 0.8
- O=C(O)Cc1ccccc1OCCC1Oc2ccccc2N(CCO)C1=O (stereo not shown) [Compound 48] — higher, 8
- CC(C)(CCCCN1C(=O)C(CCOc2ccccc2CC(=O)O)Oc2ccccc21)C(=O)O (stereo not shown) [Compound 102] — higher, 4.1
- O=C(O)Cc1ccccc1OCCC1Oc2ccccc2N(CCCCCCF)C1=O (single isomer, unassigned) [Compound 93] — higher, 53.1
- COC(=O)Cc1ccccc1OCCC1Oc2ccccc2N(CCOC(C)=O)C1=O (stereo not shown) [Compound 47] — lower, 1.3
- COC(=O)Cc1ccccc1OCCC1Oc2ccccc2N(CCCCC(C)=O)C1=O (stereo not shown) [Compound 77, Benzeneacetic acid, 2-[2-[3,4-dihydro-3-oxo-4-(5-oxohexyl)-2H-1,4-benzoxazin-2-yl]ethoxy]-, methyl ester] — higher, 9.9
- COCCCCN1C(=O)C(CCOc2ccccc2CC(=O)O)Oc2ccccc21 (stereo not shown) [Compound 114] — higher, 50.7
- COC(=O)Cc1ccccc1OCCC1Oc2ccccc2N(CCC2CCCCC2)C1=O (stereo not shown) [Compound 65] — lower, 0.8
- O=C(O)CCCCCN1C(=O)C(CCOc2ccccc2CC(=O)O)Oc2ccccc21 (stereo not shown) [Compound 101, 2H-1,4-Benzoxazine-4-hexanoic acid, 2-[2-[2-(carboxymethyl)phenoxy]ethyl]-3,4-dihydro-3-oxo-] — lower, 3.0
- COC(=O)c1ccccc1OCCC1Oc2ccccc2N(Cc2cccc(C)c2)C1=O (stereo not shown) [Compound 3] — lower, 0.6
- NC(=O)CCCCCN1C(=O)C(CCOc2ccccc2CC(=O)O)Oc2ccccc21 (stereo not shown) [Compound 98, Benzeneacetic acid, 2-[2-[4-(6-amino-6-oxohexyl)-3,4-dihydro-3-oxo-2H-1,4-benzoxazin-2-yl]ethoxy]-] — higher, 28
- CCCCCCN1C(=O)C(CCOc2ccc(SC(C)(C)C(=O)O)cc2)Oc2ccccc21 (stereo not shown) [Compound 121] — higher, 16.13
- CC(CCN1C(=O)C(CCOc2ccccc2CC(=O)O)Oc2ccccc21)CC(C)(C)C (stereo not shown) [Compound 76] — higher, 28.7
- COC(=O)c1ccccc1OCCC1Oc2ccccc2N(Cc2ccccc2)C1=O (stereo not shown) [Compound 4] — lower, 1.0
- CC(C)(C#N)CCCCN1C(=O)C(CCOc2ccccc2CC(=O)O)Oc2ccccc21 (stereo not shown) [Compound 104] — higher, 26.5
- C#CCN1C(=O)C(CCOc2ccccc2CC(=O)OC)Oc2ccccc21 (stereo not shown) [Compound 49] — higher, 5.7
- COC(=O)Cc1ccccc1OCCC1Oc2ccccc2N(CC(=O)OC)C1=O (stereo not shown) [Compound 22] — higher, 7.2
- COC(=O)Cc1ccccc1OCCC1Oc2ccccc2N(c2ccc(Cl)c(Cl)c2)C1=O (stereo not shown) [Compound 118] — lower, 0.9
- CCCCCCCCN1C(=O)C(CCOc2ccccc2CC(=O)OC)Oc2ccccc21 (stereo not shown) [Compound 52] — lower, 1.3
- O=C(O)Cc1ccccc1OCCC1Oc2ccccc2N(CCCCCCO)C1=O (stereo not shown) [Compound 95] — higher, 36.9
- CC(O)CCCCN1C(=O)C(CCOc2ccccc2CC(=O)O)Oc2ccccc21 (stereo not shown) [Compound 82, Benzeneacetic acid, 2-[2-[3,4-dihydro-4-(5-hydroxyhexyl)-3-oxo-2H-1,4-benzoxazin-2-yl]ethoxy]-] — higher, 4.9
- COC(=O)Cc1ccccc1OCCC1Oc2ccccc2N(CCOC(C)=O)C1=O (stereo not shown) [Compound 24] — lower, 1.3

same assay, conditions: Table 2; fold increase over vehicle in induction of aP2 mRNA production

`CCCCCCN1C(=O)C(C)(CCOc2ccccc2CC(=O)O)Oc2ccccc21` (stereo not shown) [Compound 128, Benzeneacetic acid, 2-[2-(4-hexyl-3,4-dihydro-2-methyl-3-oxo-2H-1,4-benzoxazin-2-yl)ethoxy]-] was tested, and the “Agonist Intrinsic Activity” value was 2.5.

same assay, conditions: Table 3 (stereoisomers); fold increase over vehicle in induction of aP2 mRNA production

Point of comparison: `CC1(CCOc2ccccc2CC(=O)O)Oc2ccccc2N(CCCCCCF)C1=O` (stereo not shown) [Compound 131], “PPAR γ Agonist Intrinsic Activity” value 36.4. Against it:
- CCCCCCN1C(=O)[C@](C)(CCOc2ccccc2CC(=O)O)Oc2ccccc21 [Compound 130] — higher, 91.3
